# In publication PMC8187357 (Communications Biology, 2021):
# Values joined by “and” are separate entries in the source; they are usually repeats but may differ in a detail not shown here. Equal values may be shown once. “Also recorded” adds a separate entry of the source.
# Tests used:
# [1] = tested on: Chemokines CCR1, CXCR2; test: CEREP 80 panel binding: Chemokines; conditions: 10 µM
# Protocol: (§1) CEREP 80 panel assay was carried out by Eurofins Cerep Panlabs facility at France. A series of binding assays was carried out to understand the off-target toxicity of CA-170. CA-170 was tested at 10 μM test concentration in duplicates. Compound binding was calculated as a % inhibition of the binding of a radioactively labeled ligand specific for each target. In each experiment the respective reference compound was tested concurrently with CA-170, and the data were compared with historical values determined at Eurofins. The experiment was accepted in accordance with Eurofins validation standard operating procedure. The results are expressed as a percent of control specific binding; (measured specific binding / control specific binding) × 100 and as a percent inhibition of control specific binding; 100−(measured specific binding / control specific binding) × 100 obtained in the presence of CA-170. The IC50 values (concentration causing a half-maximal inhibition of control specific binding) and Hill coefficients (nH) were determined by non-linear regression analysis of the competition curves generated with mean replicate values using Hill equation curve fitting.
# [2] = tested on: Galanin GAL1, GAL2; test: CEREP 80 panel binding: Galanin; conditions: 10 µM
# Protocol: as §1
# [3] = tested on: MC38 tumor bearing mice; test: Immune pharmacodynamics in MC38 model; type: in vivo, mouse; conditions: CA-170, 10 mg/kg, individual animals
# Source text: For the measurement of immune pharmacodynamics, CT26 cells were subcutaneously implanted into 5 to 7 weeks old male Balb/c mice by injecting 1 million CT26 tumor cells/ animal. When tumor volume reached ~200mm^3, animals were randomized and allocated to three treatment groups (n = 5). Similarly, for the measurement of immune pharmacodynamics in MC38 model, MC38 cell lines were subcutaneously implanted into 5 to 7 weeks old male C57B6 mice by injecting 0.5 million cells/animal. Dosing was initiated when tumor volume reached ~100 mm^3. In both tumor models, mice were orally treated daily with vehicle and CA-170 (10 mg/kg) for 5 days. As an additional control, anti-PD1 antibody (100 μg/animal, clone J43) was dosed intraperitoneally on day 1. After 24 h of last dosing, animals were sacrificed, and blood samples and tumor tissues were collected from each animal and processed for PD evaluation using antibodies shown in Supplementary Table 1 and specific methods reported in publication[51] and analyzed by FACS. The gating strategy is detailed in Supplementary Fig. 3.
# [4] = target: T1, Bradykinin B2 (Homo sapiens, UniProt P30411); test: CEREP 80 panel binding: Bradykinin; conditions: read-out: % Inhibition of Control Specific Binding
# T1 construct: Eurofins Cerep Panlabs (contract assay)
# Protocol: as §1
# [5] = tested on: Somatostatin sst; test: CEREP 80 panel binding: Somatostatin; conditions: 10 µM
# Protocol: as §1
# [6] = target: T2, NeuropeptideY Y2 (Homo sapiens, UniProt P49146); test: Y2 assay, determination of IC50 (CEREP follow-up); type: binding
# T2 construct: Eurofins Cerep Panlabs (contract laboratory)
# Protocol: as §1
# Opioid & Opioid like DOP, KOP, MOP, NOP ≤9
# Nuclear receptors GR, PPARγ ≤7
# Ion Channels Ca2+, Kv, Skca, […] 1
# Amine transporters DA, NE, 5HT ≤1
# 25% effect at the highest validated testing concentration.
# [7] = tested on: PDGF; test: CEREP 80 panel binding: Growth factors; conditions: 10 µM
# Protocol: as §1
# [8] = tested on: Amine transporters DA, NE, 5HT; test: CEREP 80 panel binding: Amine transporters; conditions: 10 µM
# Protocol: as §1
# [9] = tested on: GABA; test: CEREP 80 panel binding: GABA; conditions: 10 µM
# Protocol: as §1
# [10] = target: T3, PD-L1 (Mus musculus, UniProt Q9EP73); test: Rescue of IFN-γ release inhibited by PD-L1, mouse splenocytes; type: cell-based; conditions: mean ± S.D.; n=2; read-out: Mouse Splenocyte IFN-γ Rescue EC50 PD-L1
# T3 construct: purchased R&D Systems 1019-B7-100
# Protocol: The ability of peptides, peptidomimetics, and small molecules were analyzed for their ability to rescue T-cell proliferation or IFN-γ release from the inhibitory activity of PD-L1 or PD-L2 in a splenocyte/PBMC-based functional assay as per the protocols reported in publication[20]. […] For all in vitro assays, test agent stock was prepared in water and diluted further in the assay media to achieve test concentrations. Each experimental condition was carried out in triplicates. Percent rescue for a given test compound concentration was calculated by normalizing individual percent test agent proliferation or IFN-γ release values to percent anti-CD3 and anti-CD28 antibodies stimulated proliferation or IFN-γ release. EC50 values were derived by plotting transformed data into non-linear fit in sigmoidal dose–response curve using GraphPad Prism software (Version 7).
# [11] = Plasma stability, rat
# Protocol: Test compounds were tested for plasma stability (test concentration of 10 μM) as per the protocols reported in publication[20].
# [12] = tested on: CT26 tumor model; test: Tumor-infiltrating Tregs and CD8/FoxP3 ratio in CT26 model; type: in vivo, mouse
# Source text: Supplementary Figure 2: Effect of CA-170 alone and in combination with CTX on CD8/FoxP3 […]
# administration of CA-170 in CT26 tumor model, as observed by the measuring CD4+CD25+FoxP3+ cells. However, an increase in the number of infiltrating CD8+ T cells increased in CA-170 + CTX treated group, led to a favourable increase in the ratio of CD8+T cells […]
# (1 picture or pasted object on this page, not shown here)
# [13] = tested on: Bombesin BB; test: CEREP 80 panel binding: Bombesin; conditions: 10 µM
# Protocol: as §1
# [14] = target: T4, PD-L2 (Mus musculus, UniProt Q9WUL5); test: Rescue of PD-L2 mediated inhibition of proliferation, mouse splenocytes; type: cell-based; conditions: mean ± S.D.; n=2; read-out: Mouse Splenocyte Proliferation Rescue EC50 PD-L2
# T4 construct: purchased R&D Systems 1022-PL-100
# Protocol: For all in vitro assays, test agent stock was prepared in water and diluted further in the assay media to achieve test concentrations. Each experimental condition was carried out in triplicates. Percent rescue for a given test compound concentration was calculated by normalizing individual percent test agent proliferation or IFN-γ release values to percent anti-CD3 and anti-CD28 antibodies stimulated proliferation or IFN-γ release.
# [15] = target: T5, Vasopressin V1a (Homo sapiens, UniProt P37288); test: CEREP 80 panel binding: Vasopressin; conditions: read-out: % Inhibition of Control Specific Binding
# T5 construct: Eurofins Cerep Panlabs (contract assay)
# Protocol: as §1
# [16] = tested on: Adrenergic α1, α2, β1, β2; test: CEREP 80 panel binding: Adrenergic; conditions: 10 µM
# Protocol: as §1
# [17] = target: PD-L1 (Homo sapiens, UniProt Q9NZQ7); test: SPR and solution NMR using recombinant extracellular domains; type: binding; set-up: SPR and solution NMR using recombinant proteins containing extracellular domains; host or cells: E. coli (said of the solution NMR studies); conditions: recombinant proteins containing extracellular domains
# PD-L1 (Homo sapiens, UniProt Q9NZQ7), sequence (Q9NZQ7 19-238 limits assumed, species assumed): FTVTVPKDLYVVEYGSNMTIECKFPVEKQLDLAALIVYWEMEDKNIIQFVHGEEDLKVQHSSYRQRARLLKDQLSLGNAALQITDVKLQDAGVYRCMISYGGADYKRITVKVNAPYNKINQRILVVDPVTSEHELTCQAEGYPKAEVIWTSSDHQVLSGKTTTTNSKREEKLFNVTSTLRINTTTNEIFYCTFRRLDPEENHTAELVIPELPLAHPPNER
# T2 sequence (P49146 whole entry): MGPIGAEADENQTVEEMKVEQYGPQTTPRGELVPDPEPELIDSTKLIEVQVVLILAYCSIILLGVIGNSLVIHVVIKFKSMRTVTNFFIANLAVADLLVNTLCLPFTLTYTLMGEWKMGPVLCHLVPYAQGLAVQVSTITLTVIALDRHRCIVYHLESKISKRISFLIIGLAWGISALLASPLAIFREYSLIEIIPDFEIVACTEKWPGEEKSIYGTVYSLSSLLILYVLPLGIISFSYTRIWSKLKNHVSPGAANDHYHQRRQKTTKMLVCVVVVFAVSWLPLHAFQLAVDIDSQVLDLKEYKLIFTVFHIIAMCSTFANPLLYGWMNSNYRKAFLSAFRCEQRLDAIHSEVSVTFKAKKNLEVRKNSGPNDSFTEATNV
# T5 sequence (P37288 whole entry): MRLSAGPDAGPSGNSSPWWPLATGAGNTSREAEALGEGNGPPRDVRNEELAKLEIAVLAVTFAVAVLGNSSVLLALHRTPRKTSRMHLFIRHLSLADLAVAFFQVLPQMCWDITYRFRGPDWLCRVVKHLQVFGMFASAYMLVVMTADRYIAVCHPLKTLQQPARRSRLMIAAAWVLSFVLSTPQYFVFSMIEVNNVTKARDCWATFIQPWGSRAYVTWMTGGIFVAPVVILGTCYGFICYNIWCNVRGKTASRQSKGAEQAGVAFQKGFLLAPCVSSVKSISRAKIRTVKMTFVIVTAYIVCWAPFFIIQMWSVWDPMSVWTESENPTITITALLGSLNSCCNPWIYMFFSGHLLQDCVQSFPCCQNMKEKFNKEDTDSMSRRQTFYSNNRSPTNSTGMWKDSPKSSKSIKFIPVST
# T1 sequence (P30411 whole entry): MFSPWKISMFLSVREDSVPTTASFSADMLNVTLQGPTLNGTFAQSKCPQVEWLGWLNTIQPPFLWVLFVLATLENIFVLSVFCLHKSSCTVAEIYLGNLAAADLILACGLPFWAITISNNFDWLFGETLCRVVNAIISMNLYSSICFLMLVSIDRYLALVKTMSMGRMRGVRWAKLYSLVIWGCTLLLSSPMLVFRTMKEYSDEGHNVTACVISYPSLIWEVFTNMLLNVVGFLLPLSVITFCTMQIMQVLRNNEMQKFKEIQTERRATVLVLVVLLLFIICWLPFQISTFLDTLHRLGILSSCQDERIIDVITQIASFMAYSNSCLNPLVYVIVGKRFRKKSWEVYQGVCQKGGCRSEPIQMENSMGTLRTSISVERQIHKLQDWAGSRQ
# T4 sequence (Q9WUL5 with tags, fused parts or gaps limits assumed): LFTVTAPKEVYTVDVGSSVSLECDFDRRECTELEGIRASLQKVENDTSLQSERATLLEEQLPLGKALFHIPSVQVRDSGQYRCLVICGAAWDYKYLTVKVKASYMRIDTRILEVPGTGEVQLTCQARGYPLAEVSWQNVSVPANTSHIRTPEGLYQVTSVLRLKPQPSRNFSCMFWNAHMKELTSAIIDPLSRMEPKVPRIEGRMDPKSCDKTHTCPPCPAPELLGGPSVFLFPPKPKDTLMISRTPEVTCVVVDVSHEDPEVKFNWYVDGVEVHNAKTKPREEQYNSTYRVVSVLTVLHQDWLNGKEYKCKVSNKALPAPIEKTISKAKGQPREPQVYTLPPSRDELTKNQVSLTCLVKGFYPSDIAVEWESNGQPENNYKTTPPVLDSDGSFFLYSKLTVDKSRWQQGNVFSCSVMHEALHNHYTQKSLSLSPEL
# T3 sequence (Q9EP73 with tags, fused parts or gaps limits assumed): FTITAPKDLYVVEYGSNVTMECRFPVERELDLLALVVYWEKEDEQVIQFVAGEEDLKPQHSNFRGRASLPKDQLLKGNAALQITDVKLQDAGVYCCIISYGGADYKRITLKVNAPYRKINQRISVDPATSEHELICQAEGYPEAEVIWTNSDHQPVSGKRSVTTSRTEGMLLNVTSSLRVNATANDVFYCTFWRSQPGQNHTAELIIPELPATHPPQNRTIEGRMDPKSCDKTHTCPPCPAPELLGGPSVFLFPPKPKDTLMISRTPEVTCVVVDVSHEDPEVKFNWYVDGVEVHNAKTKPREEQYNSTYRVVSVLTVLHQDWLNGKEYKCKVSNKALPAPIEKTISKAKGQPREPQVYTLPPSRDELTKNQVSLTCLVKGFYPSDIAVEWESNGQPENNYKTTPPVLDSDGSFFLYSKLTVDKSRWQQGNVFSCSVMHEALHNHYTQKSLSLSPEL
smiles,measurement,setting,value
C[C@@H](O)[C@H](NC(=O)N[C@@H](CC(N)=O)c1nc([C@@H](N)CO)no1)C(=O)O [CA-170],% Inhibition of Control Specific Binding,[1],1%
same,% Inhibition of Control Specific Binding,[2],≤ 12%
same,"CD8+ GNZ+ T cells in Tumor % Lymphocytes, CD3+, CD8+ T cells",[3],52.4% and 36.3% and 28.5% and 36.2% and 20.1%
same,"CD8+ IFN-γ+ T cells in Blood % Lymphocytes, CD3+, CD8+ T cells",[3],1.71% and 2.24% and 2.27% and 1.35% and 2.63%
same,"CD8+ IFN-γ+ T cells in Tumor % Lymphocytes, CD3+, CD8+ T cells",[3],64.9% and 53.2% and 43.5% and 48.8% and 40.7%
same,inhibition at 10 µM,[4],< 0%
same,% Inhibition of Control Specific Binding,[5],1%
same,EC50 value (Y2 assay taken for determination of IC50),[6]; Y2,not calculable
same,effect at the highest validated testing concentration,[6]; Y2 concentration-response curve,less than 25%
same,% Inhibition of Control Specific Binding,[7],6%
same,% Inhibition of Control Specific Binding,[8],≤ 1%
same,% Inhibition of Control Specific Binding,[9],11%
same,EC50,[10],34.6 nM
same,"remaining at 4 h, 10 μM",[11],> 95%
same,levels of tumor-infiltrating Tregs (CD4+CD25+FoxP3+ cells; in words),[12]; CA-170,No significant change
same,ratio of CD8+T cells to Tregs (in words),[12]; CA-170 + CTX,increased significantly
same,% Inhibition of Control Specific Binding,[13],< 0%
same,EC50,[14],40.2 nM
same,inhibition at 10 µM,[15],1%
same,% Inhibition of Control Specific Binding,[16],≤ 6%
same,binding to PD-L1 by SPR and solution NMR (in words),[17],a definitive binding could not be established; also recorded: lack of binding
